Experimental data published in US9738634B2, “Heterocyclic amide compound and herbicide” (SYNGENTA PARTICIPATIONS AG, priority 2013, dated 2017).

Legend:
Type in all cases: in vivo
[1] = test system: directly sown rice; experiment: Test Example 4: foliar treatment, effect on crop; b: directly sown rice; settings: treatment dosage 315 g/ha
Method in brief: (§1)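 Seeds are spot-sown into sterilized diluvial soil and covered with about 1.5 cm of soil. After 14 days' greenhouse growth at 25 to 30° C, plants are sprayed on stems and leaves with diluted emulsion at the stated g/ha rate, then scored at 3 weeks.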

[2] = test system: fig-leafed goosefoot; experiment: Test Example 4: weedkilling efficacy by foliar treatment; M: fig-leafed goosefoot; settings: treatment dosage 315 g/ha
Method in brief: as §1

[3] = test system: corn; experiment: Test Example 3: soil treatment, effect on crop; c: corn; settings: treatment dosage 315 g/ha
Method in brief: (§2)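 Crop and weed responses were judged three weeks after a uniform surface spray of the water-diluted emulsion at the given g/ha rate. Seeds sat beneath about 1.5 cm of sterilized diluvial soil, and boxes stood in a greenhouse at 25 to 30° C.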

[4] = test system: soybean; experiment: Test Example 3: soil treatment, effect on crop; d: soybean; settings: treatment dosage 315 g/ha
Method in brief: as §2

[5] = test system: Italian ryegrass; experiment: Test Example 3: weedkilling efficacy through soil treatment; I: Italian ryegrass; settings: treatment dosage 315 g/ha
Method in brief: as §2

[6] = test system: bulrush; experiment: Test Example 1: weedkilling efficacy, preemergent weed treatment in the submerged state; B: bulrush; settings: treatment dosage 252 g/ha
Method in brief: (§3)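 Pots of alluvial soil were flooded to a 4 cm depth. Mixed weed seeds were sown and 2.5 leaf-stage rice seedlings transplanted. On sowing day, water-diluted emulsion was applied to the water surface (dose in g/ha). After 3 weeks at 25–30 °C, effects were rated.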

[7] = test system: barnyard grass; experiment: Test Example 2: weedkilling efficacy, growth period weed treatment in the submerged state; A: barnyard grass; settings: treatment dosage 252 g/ha
Method in brief: (§4)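 Weeds treated at the 1-2 leaf stage by application of diluted emulsion onto floodwater (4 cm depth, alluvial soil) at specified g/ha. Grown in greenhouse at 25 to 30° C; herbicidal effect rated three weeks after treatment.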

[8] = test system: directly sown rice; experiment: Test Example 3: soil treatment, effect on crop; b: directly sown rice; settings: treatment dosage 315 g/ha
Method in brief: as §2

[9] = test system: redroot pigweed; experiment: Test Example 4: weedkilling efficacy by foliar treatment; L: redroot pigweed; settings: treatment dosage 315 g/ha
Method in brief: as §1

[10] = test system: green foxtail; experiment: Test Example 4: weedkilling efficacy by foliar treatment; E: green foxtail; settings: treatment dosage 315 g/ha
Method in brief: as §1

[11] = test system: redroot pigweed; experiment: Test Example 3: weedkilling efficacy through soil treatment; L: redroot pigweed; settings: treatment dosage 315 g/ha
Method in brief: as §2

[12] = test system: wheat; experiment: Test Example 3: soil treatment, effect on crop; e: wheat; settings: treatment dosage 315 g/ha
Method in brief: as §2

[13] = test system: chickweed; experiment: Test Example 3: weedkilling efficacy through soil treatment; N: chickweed; settings: treatment dosage 315 g/ha
Method in brief: as §2

[14] = test system: beet; experiment: Test Example 3: soil treatment, effect on crop; f: beet; settings: treatment dosage 315 g/ha
Method in brief: as §2

[15] = test system: oval-leafed pondweed; experiment: Test Example 1: weedkilling efficacy, preemergent weed treatment in the submerged state; C: oval-leafed pondweed; settings: treatment dosage 252 g/ha
Method in brief: as §3

[16] = test system: birds-eye speedwell; experiment: Test Example 3: weedkilling efficacy through soil treatment; p: birds-eye speedwell; settings: treatment dosage 315 g/ha
Method in brief: as §2

[17] = test system: corn; experiment: Test Example 4: foliar treatment, effect on crop; c: corn; settings: treatment dosage 315 g/ha
Method in brief: as §1

[18] = test system: soybean; experiment: Test Example 4: foliar treatment, effect on crop; d: soybean; settings: treatment dosage 315 g/ha
Method in brief: as §1

[19] = test system: transplanted rice; experiment: Test Example 1: preemergent weed treatment in the submerged state, effect on crop; a: transplanted rice; settings: treatment dosage 252 g/ha
Method in brief: as §3

[20] = test system: Italian ryegrass; experiment: Test Example 4: weedkilling efficacy by foliar treatment; I: Italian ryegrass; settings: treatment dosage 315 g/ha
Method in brief: as §1

[21] = test system: catchweed; experiment: Test Example 3: weedkilling efficacy through soil treatment; O: catchweed; settings: treatment dosage 315 g/ha
From the text: Weedkilling Efficacy Test Through Soil Treatment
Sterilized diluvial soil was introduced into 21 cm long, 13 cm wide, 7 cm deep plastic boxes, and seeds of crabgrass, green foxtail, barnyard grass, wild oat, black-grass, Italian ryegrass, common wind-grass, Indian mallow, redroot pigweed, fig-leafed goosefoot, chickweed, catchweed, birds-eye speedwell, corn, soybean, rice, wheat, beet and rapeseed were each spot-sown, and covered with about 1.5 cm of soil. Next, emulsions of compounds of the present invention prepared according to compounding example 2 were diluted with water to give the specified dosages, and applied uniformly onto the soil surface with a small sprayer. The plants were grown by placing the plastic boxes in a greenhouse at 25 to 30° C., and 3 weeks after the pesticide treatment the effect on each type of plant was investigated on the basis of the assessment criteria of test example 1.
A: barnyard grass, B: bulrush, C: oval-leafed pondweed, D: crabgrass, E: green foxtail, F: barnyard grass, G: wild oat, H: black-grass, I: Italian ryegrass, J: common wind-grass, K: Indian mallow, L: redroot pigweed, M: fig-leafed goosefoot, N: chickweed, O: catchweed, p: birds-eye speedwell, a: transplanted rice, b: directly sown rice, c: corn, d: soybean, e: wheat, f: beet, g: rapeseed
Further, pesticide dosage (g/ha) indicates the concentration regulated such that treatment was with only the stated number of grams (g), when calculated per hectare (ha).

[22] = test system: birds-eye speedwell; experiment: Test Example 4: weedkilling efficacy by foliar treatment; p: birds-eye speedwell; settings: treatment dosage 315 g/ha
Method in brief: as §1

[23] = test system: Indian mallow; experiment: Test Example 4: weedkilling efficacy by foliar treatment; K: Indian mallow; settings: treatment dosage 315 g/ha
Method in brief: as §1

[24] = test system: fig-leafed goosefoot; experiment: Test Example 3: weedkilling efficacy through soil treatment; M: fig-leafed goosefoot; settings: treatment dosage 315 g/ha
Method in brief: as §2

[25] = test system: barnyard grass; experiment: Test Example 1: weedkilling efficacy, preemergent weed treatment in the submerged state; A: barnyard grass; settings: treatment dosage 252 g/ha
Method in brief: as §3

[26] = test system: catchweed; experiment: Test Example 4: weedkilling efficacy by foliar treatment; O: catchweed; settings: treatment dosage 315 g/ha
Method in brief: as §1

[27] = test system: bulrush; experiment: Test Example 2: weedkilling efficacy, growth period weed treatment in the submerged state; B: bulrush; settings: treatment dosage 252 g/ha
Method in brief: as §4

[28] = test system: beet; experiment: Test Example 4: foliar treatment, effect on crop; f: beet; settings: treatment dosage 315 g/ha
Method in brief: as §1

[29] = test system: crabgrass; experiment: Test Example 4: weedkilling efficacy by foliar treatment; D: crabgrass; settings: treatment dosage 315 g/ha
Method in brief: as §1

[30] = test system: black-grass; experiment: Test Example 4: weedkilling efficacy by foliar treatment; H: black-grass; settings: treatment dosage 315 g/ha
Method in brief: as §1

[31] = test system: Indian mallow; experiment: Test Example 3: weedkilling efficacy through soil treatment; K: Indian mallow; settings: treatment dosage 315 g/ha
Method in brief: as §2

[32] = test system: chickweed; experiment: Test Example 4: weedkilling efficacy by foliar treatment; N: chickweed; settings: treatment dosage 315 g/ha
Method in brief: as §1

[33] = test system: oval-leafed pondweed; experiment: Test Example 2: weedkilling efficacy, growth period weed treatment in the submerged state; C: oval-leafed pondweed; settings: treatment dosage 252 g/ha
Method in brief: as §4

[34] = test system: black-grass; experiment: Test Example 3: weedkilling efficacy through soil treatment; H: black-grass; settings: treatment dosage 315 g/ha
Method in brief: as §2

[35] = test system: green foxtail; experiment: Test Example 3: weedkilling efficacy through soil treatment; E: green foxtail; settings: treatment dosage 315 g/ha
Method in brief: as §2

[36] = test system: wheat; experiment: Test Example 4: foliar treatment, effect on crop; e: wheat; settings: treatment dosage 315 g/ha
Method in brief: as §1

[37] = test system: crabgrass; experiment: Test Example 3: weedkilling efficacy through soil treatment; D: crabgrass; settings: treatment dosage 315 g/ha
Method in brief: as §2

## CC1=C(c2ccccc2)C(=O)N(C(C)(C)C(=O)Nc2nc(C)ns2)CO1 [B-1-13]
[1]
  b (directly sown rice) effect on crop grade: 5 (weed kill ratio 90% or more, (practically complete withering))
[2]
  M (fig-leafed goosefoot) weedkilling efficacy grade: 4 (weed kill ratio 70% or more, less than 90%)
[3]
  c (corn) effect on crop grade: 3 (weed kill ratio 40% or more, less than 70%)
[4]
  d (soybean) effect on crop grade: 4 (weed kill ratio 70% or more, less than 90%)
[5]
  I (Italian ryegrass) weedkilling efficacy grade: 5 (weed kill ratio 90% or more, (practically complete withering))
[6]
  B (bulrush) weedkilling efficacy grade: 5 (weed kill ratio 90% or more, (practically complete withering))
[7]
  A (barnyard grass) weedkilling efficacy grade: 5 (weed kill ratio 90% or more, (practically complete withering))
[8]
  b (directly sown rice) effect on crop grade: 5 (weed kill ratio 90% or more, (practically complete withering))
[9]
  L (redroot pigweed) weedkilling efficacy grade: 5 (weed kill ratio 90% or more, (practically complete withering))
[10]
  E (green foxtail) weedkilling efficacy grade: 5 (weed kill ratio 90% or more, (practically complete withering))
[11]
  L (redroot pigweed) weedkilling efficacy grade: 4 (weed kill ratio 70% or more, less than 90%)
[12]
  e (wheat) effect on crop grade: 5 (weed kill ratio 90% or more, (practically complete withering))
[13]
  N (chickweed) weedkilling efficacy grade: 4 (weed kill ratio 70% or more, less than 90%)
[14]
  f (beet) effect on crop grade: 5 (weed kill ratio 90% or more, (practically complete withering))
[15]
  C (oval-leafed pondweed) weedkilling efficacy grade: 5 (weed kill ratio 90% or more, (practically complete withering))
[16]
  P (birds-eye speedwell) weedkilling efficacy grade: 5 (weed kill ratio 90% or more, (practically complete withering))
[17]
  c (corn) effect on crop grade: 2 (weed kill ratio 20% or more, less than 40%)
[18]
  d (soybean) effect on crop grade: 5 (weed kill ratio 90% or more, (practically complete withering))
[19]
  a (transplanted rice) effect on crop grade: 0 (weed kill ratio 5% or less (practically no effect))
[20]
  I (Italian ryegrass) weedkilling efficacy grade: 5 (weed kill ratio 90% or more, (practically complete withering))
[21]
  O (catchweed) weedkilling efficacy grade: 5 (weed kill ratio 90% or more, (practically complete withering))
[22]
  P (birds-eye speedwell) weedkilling efficacy grade: 4 (weed kill ratio 70% or more, less than 90%)
[23]
  K (Indian mallow) weedkilling efficacy grade: 5 (weed kill ratio 90% or more, (practically complete withering))
[24]
  M (fig-leafed goosefoot) weedkilling efficacy grade: 4 (weed kill ratio 70% or more, less than 90%)
[25]
  A (barnyard grass) weedkilling efficacy grade: 5 (weed kill ratio 90% or more, (practically complete withering))
[26]
  O (catchweed) weedkilling efficacy grade: 5 (weed kill ratio 90% or more, (practically complete withering))
[27]
  B (bulrush) weedkilling efficacy grade: 5 (weed kill ratio 90% or more, (practically complete withering))
[28]
  f (beet) effect on crop grade: 3 (weed kill ratio 40% or more, less than 70%)
[29]
  D (crabgrass) weedkilling efficacy grade: 5 (weed kill ratio 90% or more, (practically complete withering))
[30]
  H (black-grass) weedkilling efficacy grade: 5 (weed kill ratio 90% or more, (practically complete withering))
[31]
  K (Indian mallow) weedkilling efficacy grade: 2 (weed kill ratio 20% or more, less than 40%)
[32]
  N (chickweed) weedkilling efficacy grade: 4 (weed kill ratio 70% or more, less than 90%)
[33]
  C (oval-leafed pondweed) weedkilling efficacy grade: 5 (weed kill ratio 90% or more, (practically complete withering))
[34]
  H (black-grass) weedkilling efficacy grade: 5 (weed kill ratio 90% or more, (practically complete withering))
[35]
  E (green foxtail) weedkilling efficacy grade: 5 (weed kill ratio 90% or more, (practically complete withering))
[36]
  e (wheat) effect on crop grade: 4 (weed kill ratio 70% or more, less than 90%)
[37]
  D (crabgrass) weedkilling efficacy grade: 5 (weed kill ratio 90% or more, (practically complete withering))
